The values that follow come from article PMC7466001 (Molecules, 2020).

One may read the IC50 as the concentration that gives 50% inhibition. What is called logD is lipophilicity at a set pH, counting ionised and neutral species. One may read the pKB as −log10 of the KB, conventionally taken in molar units.

Several values for one entry are separate records, joined by “and”; a condition that tells them apart may be missing. Equal entries are not always repeated. Where two headings read alike, the source gives them in different places.

In data set [1] the target is T1, rat neurokinin 1 receptor (Rattus norvegicus, UniProt P14600).
T1 construct: from tissue; host or cells: rat brain (membrane preparation / homogenate)
In words: Competitive radioligand binding assay using rat brain homogenates, [3H]-[Sar9,Met(O2)11]-Substance P. To be noted: for Ratio to APT: IC50 ratio to aprepitant, rat NK1R. From the text:
An important consideration in the search of conjugate vectors for radionuclides is whether the functionalization of a high affinity ligand would not reduce the binding strength for a desired receptor. For the preliminary addressing of this issue in the case of our conjugates, we measured the affinity of compounds 5A–E (uncomplexed precursors) for the rat neurokinin-1 receptor. The human (hNK1R) and the rat (rNK1R) neurokinin 1 receptors differ in their sequences and pharmacology.
In brief, the membrane preparations obtained from rat brains were incubated at 25 °C for 60 min in the presence of a selective radioligand [^3H]-[Sar^9,Met(O2)^11]-Substance P obtained from PerkinElmer, (Waltham, MA, USA) and the increasing concentrations of the tested compounds (each concentration in duplicate). Non-specific binding was measured in the presence of 10 μM cold Substance P. The assay buffer was composed of 50 mM Tris-HCl (pH 7.4), 5 mM MnCl2, bovine serum albumin (BSA) (0.1 mg/mL), bacitracin (100 μg/mL), bestatin (30 μM), phenylmethylsulfonyl fluoride (30 μg/mL), and captopril (10 μM). The reaction total volume was 1 mL. With the incubation having been terminated, a rapid filtration through GF/B Whatman glass fiber strips was done with a M-24 Cell Harvester (Brandel, Gaithersburg, MD, USA). The filters were pre-soaked overnight with 0.5% polyethyleneimine so that the extent of non-specific binding could be minimized. After the filtration, the strips were dried, the filter discs were placed separately in 24-well plates, and a Betaplate Scint scintillation solution (PerkinElmer, Waltham, MA, USA) was added to each well. Radioactivity was measured with a MicroBeta LS scintillation counter, Trilux (PerkinElmer, Waltham, MA, USA). The data came from three independent experiments done in duplicate. The results are presented as IC50 with SEM.

Data set [2] in a line: Lipophilicity study, distribution in n-octanol/PBS (pH 7.40). Format: physicochemical. Particulars: n-octanol/PBS buffer pH 7.4. From the text: In the course of the lipophilicity study, each isolated DOTA radioconjugate (determined as fully stable in HS) was examined for distribution in the system of n-octanol and a phosphate-buffered saline (PBS) buffer (pH = 7.4) to estimate the lipophilicity of the radiocomplex. The lipophilicity of each radioconjugate (logD), defined as the logarithm of the distribution coefficient (D) is based on the ratio of the radioactivity of the organic phase to the radioactivity of the aqueous phase. The stability of the studied radioconjugate was verified simultaneously during the experiment through the HPLC analysis of the aqueous phase. LogD values of [^68Ga]Ga-5A–[^68Ga]Ga-5E and [^177Lu]Lu-5A–[^177Lu]Lu-5E are listed below in Table 3.
The lipophilicity values of the radioconjugates (logD), expressed as the logarithm of its D in the n-octanol/PBS (pH 7.40) system, mimicking the physiological conditions (Product Properties Test Guidelines of the Office of Prevention, Pesticides and Toxic Substances 830.7550, 1996), were determined right after the SPE method purification and ethanol evaporation processes. A solution of isolated selected radioconjugate in 500 µL of a 0.1 M PBS buffer at pH 7.40 and 500 µL of n-octanol was vigorously stirred and centrifuged (13,500 rpm for 5 min) to separate the immiscible phases. The radioactivities of the aqueous and organic layers were determined using a well-type NaI(Tl) detector. The distribution coefficient was calculated as the ratio of the radioactivity of the radioconjugate in the organic phase to that in the aqueous phase. Each measurement was performed in triplicate and averaged. Simultaneously, the aqueous phases were analyzed by HPLC to check whether the studied radioconjugate remained intact during the experiment.

Data set [3] is classed as physicochemical. As for the experimental part: All APT conjugates with DOTA, Bn-DOTA, and Bn-DOTAGA were radiolabeled with ^68Ga and ^177Lu, while APT conjugates with DTPA were only radiolabeled with ^68Ga. Synthesized radioconjugates were purified using the solid phase extraction (SPE) method before HPLC identification (Figure 2 and Figure 3) and further analyses.
Moreover, in the radiochromatogram of [^177Lu]Lu-DOTA-Bn-Et-APT ([^177Lu]Lu-6A) one can see a small additional signal (about 19.3 min) that is recognized as an early by-product of an interaction with solvent (EtOH) from the purification process. To verify the identity of all synthesized [^68Ga]Ga-radioconjugates in a non-carrier added scale, the non-radioactive stable gallium reference compounds (Ga-5A–Ga-9A and Ga-5A–Ga-5E) were synthesized and characterized by mass spectrometry. […]
The ^68Ga radiolabeling of the DOTA, Bn-DOTA, and Bn-DOTAGA conjugates of APT was performed according to the following procedure: 145 µL of a concentrated solution of [^68Ga]GaCl3 in 0.1 M HCl from the ^68Ge/^68Ga generator (4.9 ÷ 7.2 MBq) was added into the solution of 25 nmol of the selected conjugate in 200 µL of a 0.2 M acetate buffer (pH = 4.5) and heated for 5–10 min at 95 °C. […] The effectiveness of the purification was monitored by HPLC. […]

On the set-up of data set [4]: method as in PMID 15488686. Particulars: aprepitant; cited from earlier work.
In a further data set the test system is rNK1R. Also on record: method as in PMID 19426690. To be noted: cells expressing rNK1R; cited from earlier work.
A further data set concerns hNK1R. Also on record: method as in PMID 19426690. Particulars: cells expressing hNK1R; cited from earlier work.
For data set [5], the target named is human neurokinin 1 receptor. On the set-up: method as in PMID 9804700. Particulars: human receptor binding; cited from earlier work.
Where [6] appears, read: uncomplexed precursors, rat brain homogenates, three independent experiments in duplicate, read-out: IC50 ± SEM.

T1 sequence (P14600 whole entry): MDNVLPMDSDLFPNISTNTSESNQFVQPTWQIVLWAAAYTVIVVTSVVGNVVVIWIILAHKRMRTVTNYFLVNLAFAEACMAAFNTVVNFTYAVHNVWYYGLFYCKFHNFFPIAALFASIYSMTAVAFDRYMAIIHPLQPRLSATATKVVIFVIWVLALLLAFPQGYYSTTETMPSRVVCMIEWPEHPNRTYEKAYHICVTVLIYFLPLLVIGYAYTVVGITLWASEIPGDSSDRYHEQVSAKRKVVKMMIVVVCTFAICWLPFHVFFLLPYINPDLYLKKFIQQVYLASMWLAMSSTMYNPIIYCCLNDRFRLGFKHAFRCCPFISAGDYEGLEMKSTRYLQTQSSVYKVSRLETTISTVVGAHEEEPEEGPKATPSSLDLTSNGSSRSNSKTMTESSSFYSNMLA

For APT-Bu-DOTA [5C], the “Ratio to APT” value in data set [1] was 14.3. In addition, the IC50 in data set [1] (setting [6]) is 1800 ± 700 nM. For the same compound, the logD in data set [2] (68Ga-radiolabeled conjugate) stood at 0.290 ± 0.018; in data set [2] (177Lu-radiolabeled conjugate) it was 0.777 ± 0.021.
For the compound [^68Ga]Ga-DTPA-(Et-APT)2 [[^68Ga]Ga-9A], in data set [3], the “stability of the radioconjugate after radiosynthesis” value is “immediately unstable”.
APT-Ac-HN-NH-DOTA [5D]: in data set [1], the “Ratio to APT” value turned out to be 19.1. The IC50 in data set [1] (setting [6]) was ~2500 nM and 2500 nM. Moreover, the logD is −1.012 ± 0.017 in data set [2] (68Ga-radiolabeled conjugate) and −0.401 ± 0.015 in data set [2] (177Lu-radiolabeled conjugate).
For the compound APT-Ac-Et-DOTA [5E], the “Ratio to APT” value in data set [1] came to 19.7. In addition, the IC50 in data set [1] (setting [6]) was ~2500 nM and 2500 nM. Further, the logD is on record as −0.231 ± 0.015 in data set [2] (68Ga-radiolabeled conjugate) and 0.500 ± 0.017 in data set [2] (177Lu-radiolabeled conjugate).
With `C[C@@H](O[C@H]1OCCN(Cc2n[nH]c(=O)[nH]2)[C@H]1c1ccc(F)cc1)c1cc(C(F)(F)F)cc(C(F)(F)F)c1` [Aprepitant, aprepitant], the IC50 in data set [1] (IC50, rat brain homogenates) is 128 nM; in data set [1] (IC50 ± SEM, uncomplexed precursors, rat brain homogenates, three independent experiments in duplicate) it was 130 ± 60 nM; in data set [5] it was 0.09 nM. Also, in data set [1], the “Ratio to APT” value is given as 1.0. The logD in data set [4] is reported as 4.8. The results for the pKB with rNK1R and in the data set with hNK1R were 7.3 and 8.7, respectively.
On to APT-Pr-DOTA [5B], for which, in data set [1], the “Ratio to APT” value was determined as 5.3. In addition, the IC50 in data set [1] (setting [6]) came to 690 ± 70 nM. Moreover, the logD is on record as 0.058 ± 0.016 in data set [2] (68Ga-radiolabeled conjugate) and 0.654 ± 0.022 in data set [2] (177Lu-radiolabeled conjugate).
In the case of APT-Et-DOTA [5A], in data set [1], the “Ratio to APT” value worked out at 48.2. In addition, the half-inhibitory concentration (IC50) in data set [1] (setting [6]) was 6200 ± 2600 nM. For the same compound, the results for the logD in data set [2] (68Ga-radiolabeled conjugate) and in data set [2] (177Lu-radiolabeled conjugate) were 0.141 ± 0.019 and 0.708 ± 0.021, respectively.
